From article PMC12040169 (PLOS Biology, 2025) come the findings set out here.

This data set is described as follows: in vitro. The settings on record: human, hela cells, % viability.
`CC(O)CNc1nccnc1-c1ccc(S(C)(=O)=O)cc1` (stereo not drawn) [CBK037669]: the viability at 28.5 h, 10 µM turned out to be 96.1%. As for `COc1ccc(-c2cccc(N3CCN(CCN4CCCC4)CC3)n2)cc1OC` [CBK037680], the figure is 84.9%. As for `COc1cccc(Nc2cc(-c3ccc(N4CCOCC4)cc3)ncn2)c1OC` [CBK037687], the figure is 94.7%; as for `O=C(c1ccco1)N1CCN(c2cc(-c3ccsc3)ncn2)CC1` [CBK037690], 100%. As for `COc1cc(Nc2cccc(-c3cccc(NC(C)=O)c3)n2)cc(OC)c1OC` [CBK037698], the figure is 111%; as for `CC(=O)Nc1cccc(-c2ccc(Nc3cccnc3)nc2)c1` [CBK037703], 96.7%.

For `COc1ncc(-c2cc(N3CCN(c4ccccn4)CC3)ncn2)c(OC)n1` [CBK037707], the viability at 28.5 h, 10 µM worked out at 102%. With `COc1cc(C)c(Nc2cc(-c3ccc4c(c3)OCO4)ncn2)cc1OC` [CBK037711] the figure was 98.9%. With `COc1cc(Nc2cc(-c3cccc(N)c3)ncn2)cc(OC)c1OC` [CBK037713] the figure was 117%. As for `COc1ncc(-c2ccc(NCCn3cc[nH]c3=O)nc2)c(OC)n1` [CBK037719], the figure is 88.9%; as for `COc1cncc(-c2ccc(N3CCN(CCN(C)C)CC3)nc2)c1` [CBK037720], 88.9%. For `CN(C)c1cccc(-c2ccc(Nc3cccc(NC(=O)c4ccncc4)c3)nc2)c1` [CBK037721], the viability at 28.5 h, 10 µM was 58.7%. With `COc1ncc(-c2cccc(NCC(c3cccnc3)N(C)C)n2)c(OC)n1` (stereo not drawn) [CBK037723] the figure was 104%.

Consider `COc1cc(C)c(Nc2cccc(/C=C/c3ccccc3)n2)cc1OC` [CBK037725], for which the viability at 28.5 h, 10 µM was found to be 102%. For the molecule `O=c1[nH]ccn1CCNc1cc(-c2cccc3oc4ccccc4c23)ncn1` [CBK037726], the viability at 28.5 h, 10 µM was 102%. As for `c1ccc(CN2CCN(c3ccc(Nc4cc(-c5ccncc5)ncn4)cc3)CC2)cc1` [CBK037727], the figure is 92.3%; as for `c1ccc(Oc2ccccc2-c2cc(N3CCC(N4CCCCC4)CC3)ncn2)cc1` [CBK037728], 88.7%.

With `FC(F)(F)Oc1ccc(-c2cc(NCCc3ccccn3)ncn2)cc1` [CBK037732], the viability at 28.5 h, 10 µM was determined as 98.2%.

Regarding `CN(C)c1cccc(-c2ccc(Nc3ccc(N4CCOCC4)cc3)nc2)c1` [CBK037735], the viability at 28.5 h, 10 µM turned out to be 92.2%. As for `Cc1ccc(-c2ccc(Nc3ccc(Oc4ccccc4)cc3)nc2)cc1C` [CBK037740], the figure is 92.7%. With `COc1cncc(-c2cccc(NCC(c3cccnc3)N(C)C)n2)c1` (stereo not drawn) [CBK037741] the figure was 93.6%; with `c1cncc(Nc2cccc(-c3ccco3)n2)c1` [CBK037742], 100%. As for `COc1ccc(Nc2ccc(-c3ccc4ccccc4c3)cn2)cn1` [CBK037744], the figure is 88.6%; as for `CCCNc1cc(-c2cccc(Cl)c2)nc2ccnn12` [CBK037747], 112%. For the molecule `COc1ccc(-c2cc(N3CCC(N4CCCCC4)CC3)ncn2)cc1OC` [CBK037752], the viability at 28.5 h, 10 µM is 90%. As for `COc1cc(C)c(Nc2cc(-c3cccnc3)ncn2)cc1OC` [CBK037754], the figure is 102%; as for `O=C(NCCO)c1cccc(-c2cncc(N3CCCCC3CCO)n2)c1` (stereo not drawn) [CBK037759], 104%; as for `CCN(CCO)c1ccc(Nc2cc(-c3ccc(C#N)cc3)ncn2)cc1` [CBK037764], 87.9%. As for `c1cc(N2CCN(CCN3CCCC3)CC2)ncc1-c1ccc2c(c1)OCO2` [CBK037769], the figure is 95.1%. As to `COc1cncc(-c2ccc(Nc3ccc(OC)nc3)nc2)c1` [CBK037773], the viability at 28.5 h, 10 µM stood at 103%. With `CCCC/C=C/c1ccc(Nc2ccc3c(c2)OCCO3)nc1` [CBK037774] the figure was 93.3%; with `COc1ccc(C(=O)OC(C)(C)C)c(-c2cncc(N3CCCCC3CCO)n2)c1` (stereo not drawn) [CBK037786], 104%. With `O=C(O)CCc1ccc(-c2ccc(N3CCN(CCN4CCCC4)CC3)nc2)cc1` [CBK037796] the figure was 103%.

Take `Cc1ccc(-c2cccc(N3CCN(CCN4CCCC4)CC3)n2)cc1C` [CBK037799]: the viability at 28.5 h, 10 µM turned out to be 113%. As for `c1ccc(-c2ccc(Nc3ccc4c(c3)OCCO4)nc2)cc1` [CBK037802], the viability at 28.5 h, 10 µM is 98.3%.

Consider `N#Cc1cccc(Nc2cncc(-c3cccc(C(=O)NCCO)c3)n2)c1` [CBK037810], for which the viability at 28.5 h, 10 µM turned out to be 97.1%.

With `N#Cc1ccc(-c2cc(N3CCN(C(=O)c4ccco4)CC3)ncn2)cc1` [CBK037813], the viability at 28.5 h, 10 µM was found to be 98.2%. With `c1ccc2c(-c3cc(Nc4ccc5[nH]ccc5c4)ncn3)cccc2c1` [CBK037815] the figure was 42.9%; with `O=C(c1ccco1)N1CCN(c2cc(-c3ccccc3Oc3ccccc3)ncn2)CC1` [CBK037817], 96.8%. With `CC(=O)Nc1cccc(-c2cncc(NCCc3c[nH]c4ccccc34)n2)c1` [CBK037820] the figure was 97.9%; with `O=C(O)CCc1ccc(-c2cc(N3CCN(c4ccccn4)CC3)ncn2)cc1` [CBK037821], 105%.

Regarding `Nc1ccc(C(=O)Nc2ccc(Nc3cc(-c4cccnc4)ncn3)cc2)cc1` [CBK037823], the viability at 28.5 h, 10 µM amounted to 94.6%. As for `CN(C)c1cccc(-c2cc(N3CCN(c4ccccn4)CC3)ncn2)c1` [CBK037825], the figure is 104%; as for `CCCC/C=C/c1cncc(NC2CCC(O)CC2)n1` (stereo not drawn) [CBK037840], 105%; as for `O=C(c1ccco1)N1CCN(c2cc(-c3ccc(OCc4ccccc4)cc3)ncn2)CC1` [CBK037844], 97.6%.

On to `O=C(O)c1cccc(-c2cncc(NCCCN3CCOCC3)n2)c1` [CBK037850], for which the viability at 28.5 h, 10 µM turned out to be 104%. `OCc1ccccc1-c1cncc(NCCc2c[nH]c3ccccc23)n1` [CBK037852]: the viability at 28.5 h, 10 µM stood at 93.2%.

Regarding `CC(C)(CO)CNc1cncc(-c2cccc(Cl)c2)n1` [CBK037862], the viability at 28.5 h, 10 µM came to 102%. As for `c1ccc(CNc2nc(-c3ccsc3)cn3ccnc23)cc1` [CBK037868], the figure is 88%; as for `CN(C)CCN(C)c1nc(-c2ccc(C(=O)O)cc2)cn2ccnc12` [CBK037880], 96.7%; as for `CC(C)(CO)CNc1cncc(-c2cccnc2)n1` [CBK037881], 89.8%. With `CCC(CO)Nc1cncc(-c2cc(OC)c(OC)c(OC)c2)n1` (stereo not drawn) [CBK037882] the figure was 98.9%; with `NC1CCC(Nc2cncc(-c3ccc(F)c(Cl)c3)n2)CC1` (stereo not drawn) [CBK037893], 99.6%; with `CN(C)c1ccc(-c2cn3ccnc3c(NC3CC3)n2)cc1` [CBK037894], 103%.

Turning to `COc1cc(-c2cn3ccnc3c(N3CCN(c4ccncc4)CC3)n2)cc(OC)c1OC` [CBK037896], the viability at 28.5 h, 10 µM stood at 86.6%. With `c1ccc2cc(-c3cncc(NCc4ccncc4)n3)ccc2c1` [CBK037899] the figure was 92.2%. With `COc1cncc(-c2cncc(NCCCN3CCOCC3)n2)c1` [CBK037902] the figure was 84%; with `OCCC1CCCCN1c1cncc(-c2cccc(Cl)c2)n1` (stereo not drawn) [CBK037906], 108%; with `c1cnc2c(-c3cn4ccnc4c(NC4CC4)n3)cccc2c1` [CBK037911], 111%.

Turning to `O=C(O)c1cccc(-c2cncc(NCc3ccncc3)n2)c1` [CBK037915], the viability at 28.5 h, 10 µM was determined as 106%. In the case of `CCCC/C=C/c1cncc(N2CCN(C(=O)c3ccco3)CC2)n1` [CBK037918], the viability at 28.5 h, 10 µM is 91.3%. For `COc1ccc(C(C)C)cc1-c1cncc(N2CCN(c3ccccc3C#N)CC2)n1` [CBK037927], the viability at 28.5 h, 10 µM is 98.8%.

On to `OCCN1CCN(c2nc(C3CCOC3)cn3ccnc23)CC1` (stereo not drawn) [CBK037931], for which the viability at 28.5 h, 10 µM was 98.5%. With `CC(C)c1ccc(-c2cncc(NCCCO)n2)cc1` [CBK037937] the figure was 106%; with `COc1ncc(-c2cncc(NCCO)n2)c(OC)n1` [CBK037939], 106%; with `OCc1cccc(-c2cncc(NCCc3cccnc3)n2)c1` [CBK037946], 98.8%. Take `CN(C)CCN(C)c1nc(-c2cc(C(F)(F)F)cc(C(F)(F)F)c2)cn2ccnc12` [CBK037971]: the viability at 28.5 h, 10 µM was 104%. With `CC(=O)Nc1cccc(-c2nccnc2NCc2ccc3c(c2)OCO3)c1` [CBK037972] the figure was 97.1%; with `COc1cc(-c2cncc(N3CCC(C(=O)O)CC3)n2)cc(OC)c1OC` [CBK037973], 100%; with `CC(=O)c1ccc(-c2nccnc2NCC2CC2)s1` [CBK037975], 104%.

On to `c1cc(CCNc2nccn3ccnc23)ccn1` [CBK037976], for which the viability at 28.5 h, 10 µM turned out to be 99.2%. Regarding `COc1ccccc1-c1cn2ccnc2c(NCCc2ccccn2)n1` [CBK037980], the viability at 28.5 h, 10 µM came out at 107%. With `COc1ccc(N2CCN(c3cncc(-c4cc(OC)c(OC)c(OC)c4)n3)CC2)cc1OC` [CBK037988] the figure was 99.9%; with `CN(C)C(=O)COc1cccc(Nc2nc(Br)cn3ccnc23)c1` [CBK037989], 92.8%; with `COc1cc(-c2nccnc2N2CCCN(C)CC2)cc(OC)c1OC` [CBK037994], 97.8%.

As for `O=C(O)c1ccc(CNC(=O)c2cnc(-c3ccc(F)cc3)c(-c3ccc(O)cc3)c2)cc1` [CBK037996], the viability at 28.5 h, 10 µM turned out to be 101%. With `CC(=O)Nc1cccc(-c2nccnc2NCC(c2cccnc2)N(C)C)c1` (stereo not drawn) [CBK037998] the figure was 95.6%; with `CCNc1nc(-c2ccc3[nH]ccc3c2)cn2ccnc12` [CBK038002], 99.5%. On to `OCc1ccc(-c2nccnc2NCCc2c[nH]c3ccccc23)cc1` [CBK038004], for which the viability at 28.5 h, 10 µM amounted to 98.8%. As for `CN(C)CCN(C)c1nc(-c2ccc(F)c(Cl)c2)cn2ccnc12` [CBK038007], the figure is 95.7%; as for `COCCNc1nccnc1-c1ccccc1CO` [CBK038010], 108%.

For orientation: viability means a read-out of living cells in per cent, often relative to untreated cells.
